Results from PubChem BioAssay AID328 (DTP/NCI, 2004).
Values joined by “and” are separate entries in the source; they are usually repeats but may differ in a detail not shown here. Equal values may be shown once. Toxic doses and inconclusive results are not listed. The calls were made as follows: active = survival T/C of 150% or more; inactive = T/C below 125% in these data.

Tested on: BDF1 mice, P388 leukemia ip, median survival T/C
Test: NCI In Vivo Anticancer Drug Screen. Data for tumor model P388 Leukemia (intraperitoneal) in B6D2F1 (BDF1) mice
Settings: endpoint: median survival time, higher = longer survival
Procedure, shortened: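 In tumour-bearing mice, survival after compound treatment is set against the vehicle group and given as a quotient.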

[1] = dose: 100.0 mg/kg/injection, schedule: Q01DX009 (ip), vehicle: saline
[2] = dose: 100.0 mg/kg/injection, schedule: Q01DX009 (ip), vehicle: saline with Tween-80
[3] = dose: 200.0 mg/kg/injection, schedule: Q01DX009 (ip), vehicle: saline with Tween-80
[4] = dose: 50.0 mg/kg/injection, schedule: Q04DX003 (ip), vehicle: Klucel (hydroxypropylcellulose) (HPC)
[5] = dose: 100.0 mg/kg/injection, schedule: Q04DX003 (ip), vehicle: Klucel (hydroxypropylcellulose) (HPC)
[6] = dose: 200.0 mg/kg/injection, schedule: Q04DX003 (ip), vehicle: Klucel (hydroxypropylcellulose) (HPC)
[7] = dose: 50.0 mg/kg/injection, schedule: Q01DX009 (ip), vehicle: saline with Tween-80

Measured: T/C

O=C(O)CS(=O)(=O)c1ccccc1
inactive: dose: 25.0 mg/kg/injection, schedule: Q04DX003 (ip), vehicle: saline 109 % of control | dose: 50.0 mg/kg/injection, schedule: Q01DX001 (ip), vehicle: other 95 % of control | dose: 50.0 mg/kg/injection, schedule: Q01DX009 (ip), vehicle: saline 108 % of control | dose: 50.0 mg/kg/injection, schedule: Q04DX003 (ip), vehicle: saline 109 % of control | dose: 100.0 mg/kg/injection, schedule: Q01DX001 (ip), vehicle: other 100 % of control | [1] 120 % of control | dose: 100.0 mg/kg/injection, schedule: Q04DX003 (ip), vehicle: saline 100 % of control | dose: 200.0 mg/kg/injection, schedule: Q01DX009 (ip), vehicle: saline 108 % of control

Cc1cc(N(CCCl)CCCl)ccc1C=Nc1ccccc1C(=O)O
active: [2] 164 % of control | [3] 180 % of control

COC(OC)C(=O)/C=C/C(C)COC1CCCCO1 (configuration not stated)
inactive: [4] 113 % of control | [5] 118 % of control | [6] 109 % of control

COC(OC)C1(O)CC(C(C)/C=C(/C)C(CC(=O)N(C)c2ccccc2)OCc2ccccc2)OC(=O)N1 (configuration not stated)
inactive: [4] 99 % of control | [5] 109 % of control | [6] 118 % of control

O=[N+]([O-])c1ccc(N=N/C(Cc2ccccc2)=N\Nc2ccccc2)cc1
inactive: dose: 100.0 mg/kg/injection, schedule: Q01DX009 (ip), vehicle: Klucel (hydroxypropylcellulose) (HPC) 100 % of control | dose: 200.0 mg/kg/injection, schedule: Q01DX009 (ip), vehicle: Klucel (hydroxypropylcellulose) (HPC) 100 % of control

O=NN(CCCl)C(=O)NCCCl
inactive: dose: 0.5 mg/kg/injection, schedule: Q01DX001 (ip), vehicle: saline 111 % of control | dose: 1.0 mg/kg/injection, schedule: Q01DX001 (ip), vehicle: saline 105 % of control | dose: 12.0 mg/kg/injection, schedule: Q01DX001 (ip), vehicle: Klucel (hydroxypropylcellulose) (HPC) 119 % of control | dose: 16.0 mg/kg/injection, schedule: Q01DX009 (ip), vehicle: other 100 % of control | dose: 60.0 mg/kg/injection, schedule: Q01DX001 (ip), vehicle: saline + alcohol 88 % of control
active: dose: 2.0 mg/kg/injection, schedule: Q01DX009 (ip), vehicle: other 172 % of control and 180 % of control | dose: 3.13 mg/kg/injection, schedule: Q01DX010 (ip), vehicle: saline 255 % of control and 260 % of control | dose: 3.2 mg/kg/injection, schedule: Q01DX009 (ip), vehicle: saline + alcohol 195 % of control | dose: 4.0 mg/kg/injection, schedule: Q01DX009 (ip), vehicle: other 227 % of control and 276 % of control | dose: 4.8 mg/kg/injection, schedule: Q01DX009 (ip), vehicle: saline + alcohol 275 % of control and 276 % of control | dose: 5.0 mg/kg/injection, schedule: Q01DX001 (ip), vehicle: saline 164 % of control | dose: 6.25 mg/kg/injection, schedule: Q01DX010 (ip), vehicle: saline 300 % of control | dose: 6.4 mg/kg/injection, schedule: Q01DX009 (ip), vehicle: saline + alcohol 319 % of control and 532 % of control | dose: 7.5 mg/kg/injection, schedule: Q01DX001 (ip), vehicle: saline + alcohol 157 % of control and 200 % of control | dose: 7.5 mg/kg/injection, schedule: Q01DX001 (ip), vehicle: saline 211 % of control | dose: 8.0 mg/kg/injection, schedule: Q01DX009 (ip), vehicle: other 270 % of control and 514 % of control | dose: 10.0 mg/kg/injection, schedule: Q01DX001 (ip), vehicle: saline 212 % of control | dose: 15.0 mg/kg/injection, schedule: Q01DX001 (ip), vehicle: saline + alcohol 253 % of control and 176 % of control | dose: 15.0 mg/kg/injection, schedule: Q01DX001 (ip), vehicle: saline 159 % of control | dose: 16.0 mg/kg/injection, schedule: Q01DX001 (ip), vehicle: saline + alcohol 196 % of control | dose: 20.0 mg/kg/injection, schedule: Q01DX001 (ip), vehicle: saline 238 % of control and 154 % of control | dose: 20.0 mg/kg/injection, schedule: Q#XHX024 (ip), vehicle: saline 229 % of control | dose: 21.6 mg/kg/injection, schedule: Q01DX001 (ip), vehicle: other 175 % of control | dose: 21.6 mg/kg/injection, schedule: Q01DX001 (ip), vehicle: saline + alcohol 152 % of control | dose: 30.0 mg/kg/injection, schedule: Q01DX001 (ip), vehicle: saline 247 % of control and 564 % of control and 159 % of control | dose: 30.0 mg/kg/injection, schedule: Q#XHX024 (ip), vehicle: saline 546 % of control | dose: 32.0 mg/kg/injection, schedule: Q01DX001 (ip), vehicle: saline + alcohol 225 % of control | dose: 36.0 mg/kg/injection, schedule: Q01DX001 (ip), vehicle: other 236 % of control | dose: 36.0 mg/kg/injection, schedule: Q01DX001 (ip), vehicle: saline + alcohol 499 % of control | dose: 40.0 mg/kg/injection, schedule: Q01DX001 (ip), vehicle: saline 266 % of control | dose: 64.0 mg/kg/injection, schedule: Q01DX001 (ip), vehicle: saline + alcohol 281 % of control

N#Cc1c2c(c(O)[nH]c1=O)CCCC2
inactive: [2] 120 % of control | [3] 105 % of control | dose: 400.0 mg/kg/injection, schedule: Q01DX009 (ip), vehicle: saline with Tween-80 120 % of control

CNC(=S)NC1C2CC3CC(C2)CC1C3 (configuration not stated)
inactive: [7] 94 % of control | [2] 94 % of control | [3] 94 % of control

CS(=O)CC(O)(c1ccccc1)c1ccccn1 (configuration not stated)
inactive: [7] 103 % of control | [2] 110 % of control | [3] 100 % of control

CC1=C(O)/C(=C\C(C)CCCC(C)/C=C/C=C(\C)CCCc2ccoc2)OC1=O (configuration not stated)
inactive: dose: 5.0 mg/kg/injection, schedule: Q01DX009 (ip), vehicle: other 98 % of control | dose: 10.0 mg/kg/injection, schedule: Q01DX009 (ip), vehicle: other 96 % of control | dose: 20.0 mg/kg/injection, schedule: Q01DX009 (ip), vehicle: other 97 % of control

COc1cc(/C=N\NC(=O)CC#N)cc(OC)c1OC
inactive: [7] 90 % of control | dose: 50.0 mg/kg/injection, schedule: Q04DX003 (ip), vehicle: saline with Tween-80 95 % of control | [2] 104 % of control | dose: 100.0 mg/kg/injection, schedule: Q04DX003 (ip), vehicle: saline with Tween-80 95 % of control | [3] 100 % of control | dose: 200.0 mg/kg/injection, schedule: Q04DX003 (ip), vehicle: saline with Tween-80 95 % of control

CCC1CCN2CCc3c([nH]c4ccccc34)C(C(=O)OC)(c3cc4c(cc3OC)N(C)C3C(O)(C(=O)OC)C(OC(C)=O)C5(CC)CCCN6CCC43C65)CC2C1 (configuration not stated)
inactive: dose: 0.06 mg/kg/injection, schedule: Q01DX009 (ip), vehicle: water 95 % of control | dose: 0.12 mg/kg/injection, schedule: Q01DX009 (ip), vehicle: water 100 % of control | dose: 0.25 mg/kg/injection, schedule: Q01DX009 (ip), vehicle: water 104 % of control | dose: 0.5 mg/kg/injection, schedule: Q01DX009 (ip), vehicle: water 95 % of control | dose: 1.0 mg/kg/injection, schedule: Q01DX009 (ip), vehicle: water 86 % of control and 104 % of control | dose: 2.0 mg/kg/injection, schedule: Q01DX009 (ip), vehicle: water 90 % of control and 95 % of control | dose: 4.0 mg/kg/injection, schedule: Q01DX009 (ip), vehicle: water 90 % of control | dose: 8.0 mg/kg/injection, schedule: Q01DX009 (ip), vehicle: water 95 % of control

Cc1ccccc1P(=O)(c1ccccc1C)c1ccccc1C
inactive: dose: 25.0 mg/kg/injection, schedule: Q01DX009 (ip), vehicle: saline with Tween-80 90 % of control | [7] 94 % of control | [2] 94 % of control

CCO/C=C1\SC(=S)N(c2ccco2)C1=O
active: dose: 22.0 mg/kg/injection, schedule: Q01DX009 (ip), vehicle: saline with Tween-80 150 % of control
inactive: dose: 5.56 mg/kg/injection, schedule: Q01DX009 (ip), vehicle: saline with Tween-80 104 % of control | dose: 8.33 mg/kg/injection, schedule: Q01DX009 (ip), vehicle: saline with Tween-80 104 % of control | dose: 12.5 mg/kg/injection, schedule: Q01DX009 (ip), vehicle: saline with Tween-80 108 % of control | dose: 18.7 mg/kg/injection, schedule: Q01DX009 (ip), vehicle: saline with Tween-80 116 % of control | dose: 30.0 mg/kg/injection, schedule: Q01DX009 (ip), vehicle: saline 116 % of control | dose: 44.0 mg/kg/injection, schedule: Q01DX009 (ip), vehicle: saline 100 % of control | [7] 100 % of control | dose: 66.0 mg/kg/injection, schedule: Q01DX009 (ip), vehicle: saline 116 % of control | [1] 116 % of control

O.Oc1ccccc1C=NCCC[N-]CCCN=Cc1ccccc1O.[Co]
inactive: [7] 114 % of control

S=c1[nH]c2ccccc2s1.[Zn+2]
inactive: [7] 98 % of control | [2] 100 % of control | [3] 99 % of control
